Results: PubChem BioAssay (NCI)
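1) Cells in 96-well plates. 2) Compound, 48 h, 5 concentrations. 3) Linear interpolation between surrounding doses. 4) Unreached endpoint = highest concentration. TGI: concentration producing complete growth inhibition.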

Experiments:
Assay in all cases: NCI-60 cell line screen, 48 h
CAKI-1 renal = system: CAKI-1 renal
CCRF-CEM leukemia = system: CCRF-CEM leukemia
HOP-92 NSCLC = system: HOP-92 NSCLC
HT29 colon = system: HT29 colon
IGROV1 ovarian = system: IGROV1 ovarian
LOX IMVI melanoma = system: LOX IMVI melanoma
M14 melanoma = system: M14 melanoma
MDA-N = system: MDA-N
MOLT-4 leukemia = system: MOLT-4 leukemia
NCI-H226 lung = system: NCI-H226 lung
NCI-H23 lung = system: NCI-H23 lung
OVCAR-5 ovarian = system: OVCAR-5 ovarian
SF-295 CNS = system: SF-295 CNS
SK-MEL-28 melanoma = system: SK-MEL-28 melanoma
SK-MEL-5 melanoma = system: SK-MEL-5 melanoma
SN12C renal = system: SN12C renal
SNB-75 CNS = system: SNB-75 CNS
UACC-62 melanoma = system: UACC-62 melanoma
SF-268 CNS = system: SF-268 CNS
A498 renal = system: A498 renal

Row | Structure (SMILES) | TGI (CAKI-1 renal) | TGI (CCRF-CEM leukemia) | TGI (HOP-92 NSCLC) | TGI (HT29 colon) | TGI (IGROV1 ovarian) | TGI (LOX IMVI melanoma) | TGI (M14 melanoma) | TGI (MDA-N) | TGI (MOLT-4 leukemia) | TGI (NCI-H226 lung) | TGI (NCI-H23 lung) | TGI (OVCAR-5 ovarian) | TGI (SF-295 CNS) | TGI (SK-MEL-28 melanoma) | TGI (SK-MEL-5 melanoma) | TGI (SN12C renal) | TGI (SNB-75 CNS) | TGI (UACC-62 melanoma) | TGI (SF-268 CNS) | TGI (A498 renal)
1 | CCN(CC)CCCNc1nc(=O)[nH]c(C)c1C(=O)Nc1ccc2c(c1)c1ccccc1n2CC | > 100 µM | > 100 µM | > 100 µM | > 100 µM | > 100 µM | > 100 µM | > 100 µM | > 100 µM | > 100 µM | > 100 µM | > 100 µM | > 100 µM | > 100 µM | > 100 µM | > 100 µM | > 100 µM | > 100 µM | > 100 µM |  | 
2 | O=C(CCCl)NNC1=NCCCCN1 |  | > 100 µM | > 100 µM | > 100 µM | > 100 µM | > 100 µM | > 100 µM | > 100 µM | > 100 µM | > 100 µM | > 100 µM | > 100 µM | > 100 µM | > 100 µM | > 100 µM | > 100 µM | > 100 µM | > 100 µM | > 100 µM | 
3 | C=C(C)C(O)C(O)C[C@@H](C)C1CC[C@]23C[C@]12CCC1[C@@]2(C)CCC(OC(C)=O)C(C)(C)C2CC(OC2OC(CO)C(O)C(O)C2O)[C@]13C (some centres undefined) | > 100 µM | 31.2 µM | 25.7 µM | 33.6 µM | 28.8 µM | 32.3 µM | 28.4 µM | 31.1 µM | 38.3 µM | 39.9 µM | 41.6 µM | 45.9 µM | 36.7 µM | 37.1 µM | 33.1 µM | 30.9 µM | 43 µM | 31.8 µM | 33 µM | 
4 | O=c1oc2ccc(Cl)cc2cc1-c1cn2ccccc2n1 | 45.9 µM | > 100 µM | > 73.3 µM | > 50.6 µM | > 100 µM | > 100 µM | > 100 µM | > 100 µM | > 100 µM | > 94.8 µM | 46.8 µM | > 100 µM | 24.5 µM | > 100 µM | > 100 µM | 36.8 µM | > 41.3 µM | 38.2 µM | 99.3 µM | 
5 | SCc1ccc(CS)s1 |  | > 100 µM | > 100 µM | > 100 µM | > 100 µM | > 100 µM | > 100 µM | > 100 µM | > 100 µM |  | > 100 µM | > 100 µM | > 100 µM | > 100 µM | > 100 µM | > 100 µM | > 100 µM | > 100 µM | > 100 µM | 
6 | Fc1cccc(Cl)c1C1SCc2nc3cc4ccccc4cc3n21 (centres undefined) | > 100 µM | > 100 µM | 72.3 µM | > 100 µM | > 100 µM | > 100 µM | > 100 µM | > 100 µM | > 100 µM | > 100 µM | > 100 µM | > 100 µM | > 100 µM | > 100 µM |  | > 100 µM |  | > 100 µM | > 100 µM | 
7 | O=C(CN1CCOCC1)c1ccc2c(c1)oc(=O)n2CCN1CCCC1 | > 100 µM | > 100 µM |  | > 100 µM | > 100 µM | > 100 µM | > 100 µM | > 100 µM | > 100 µM | > 100 µM | > 100 µM | > 100 µM | > 100 µM | > 100 µM | > 100 µM | > 100 µM | > 100 µM | > 100 µM | > 100 µM | > 100 µM
8 | COc1ccc(N=Nc2c(C)c(C#N)c(=S)n(C3OC(CO)C(O)C(O)C3O)c2C)cc1 (centres undefined) | > 100 µM | 89.2 µM | 64.8 µM | > 100 µM | > 100 µM | > 100 µM | > 100 µM | > 100 µM | 84.6 µM |  | > 100 µM | > 100 µM | > 100 µM | > 100 µM | 35.1 µM |  | > 100 µM | > 100 µM | > 100 µM | 
9 | NC(Cc1ccc(S(=O)(=O)O)cc1)C(=O)NC(Cc1ccc(S(=O)(=O)O)cc1)C(=O)NC(Cc1ccc(S(=O)(=O)O)cc1)C(=O)O (centres undefined) | > 100 µM | > 100 µM |  | > 100 µM | > 100 µM | > 100 µM | > 100 µM | > 100 µM | > 100 µM | > 100 µM | > 100 µM | > 100 µM | > 100 µM | > 100 µM | > 100 µM | > 100 µM | > 100 µM | > 100 µM | > 100 µM | > 100 µM
10 | O=[N+]([O-])/C(C(Cl)=C(Cl)Cl)=C(\Nc1ccccc1)n1nnc2ccccc21 | > 100 µM | 65.9 µM |  | > 100 µM |  | 31.2 µM | > 100 µM | > 100 µM | > 100 µM | > 100 µM | 61.2 µM | > 100 µM | > 100 µM | > 100 µM |  | > 100 µM | > 100 µM | > 100 µM | 36.3 µM | > 100 µM
11 | Oc1ccccc1C1=NOC(c2ccc(C(F)(F)F)cc2)C1 (centres undefined) | > 50 µM | > 50 µM |  | > 50 µM | > 33.3 µM | > 50 µM | > 50 µM | > 50 µM | > 50 µM | > 50 µM | > 50 µM | > 50 µM | > 50 µM | > 50 µM | > 50 µM | > 50 µM | > 50 µM | > 50 µM | > 50 µM | > 50 µM
